The text below walks through data of patent US10112899B2 (ViiV HEALTHCARE UK LIMITED, priority 2014, dated 2018).

pIC50: −log10 of the molar value.

The test system of one assay is HIV in the HTLV-1 transformed cell line MT-4. Put plainly: organism not typed. It is filed as cell-based. The settings on record: MT4, 96 h, MT-4 cells; luciferase/cell titer glo readout after 96 hours; 10 point dose response.
Compound `Cc1ccc(-c2c(C)c3c(c(C)c2[C@H](OC(C)(C)C)C(=O)O)CN(C(=O)[C@H]2CCOC2)C3)cc1` [Example 231, (S)-2-(tert-butoxy)-2-(4,7-dimethyl-2-((S)-tetrahydrofuran-3-carbonyl)-6-(p-tolyl)isoindolin-5-yl)acetic acid] had a pIC50 of 7.43.

`Cc1ccc(-c2c(C)c3c(c(C)c2[C@H](OC(C)(C)C)C(=O)O)CN(C(=O)NC2CCC(C)CC2)C3)cc1` (stereo partly drawn) [Example 54, (2S)-2-(tert-butoxy)-2-[4,7-dimethyl-6-(4-methylphenyl)-2-{[(1r,4r)-4-methylcyclohexyl]carbamoyl}-2,3-dihydro-1H-isoindol-5-yl]acetic acid] had a pIC50 of 6.54.

Compound `Cc1c(-c2c(C)c3c(c(C)c2[C@H](OC(C)(C)C)C(=O)O)CN(C(=O)c2cc(F)c(F)c(F)c2)C3)cc(F)c2c1CCCO2` (atropisomer, axis not shown; (M)) [Example 173, (S)-2-(tert-butoxy)-2-((M)-6-(8-fluoro-5-methylchroman-6-yl)-4,7-dimethyl-2-(3,4,5-trifluorobenzoyl)isoindolin-5-yl)acetic acid] had a pIC50 of 8.52.

For the compound `Cc1ccc(-c2c(C)c3c(c(C)c2[C@H](OC(C)(C)C)C(=O)O)CN(C(=O)NC(C)(C)C)C3)cc1` [Example 63], the pIC50 is 7.82.

The compound `Cc1ccc(-c2c(C)c3c(c(C)c2[C@H](OC(C)(C)C)C(=O)O)CN(C(=O)NCc2ccccc2)C3)cc1` [Example 34, (S)-2-(2-(benzylcarbamoyl)-4,7-dimethyl-6-(p-tolyl)isoindolin-5-yl)-2-(tert-butoxy)acetic acid] had a pIC50 of 7.07.

For the compound `Cc1ccc(-c2c(C)c3c(c(C)c2[C@H](OC(C)(C)C)C(=O)O)CN(C(=O)N2CCC(F)(F)CC2)C3)cc1` [Example 92, (S)-2-(tert-butoxy)-2-(2-(4,4-difluoropiperidine-1-carbonyl)-4,7-dimethyl-6-(p-tolyl)isoindolin-5-yl)acetic acid], the pIC50 was 7.80.

`Cc1ccc(-c2c(C)c3c(c(C)c2[C@H](OC(C)(C)C)C(=O)O)CN(C(=O)N2CCC2)C3)cc1` [Example 61, (2S)-2-[2-(azetidine-1-carbonyl)-4,7-dimethyl-6-(4-methylphenyl)-2,3-dihydro-1H-isoindol-5-yl]-2-(tert-butoxy)acetic acid] gave a pIC50 of 7.42.

For the compound `Cc1ccc(-c2c(C)c3c(c(C)c2[C@H](OC(C)(C)C)C(=O)O)CN(C(=O)N2C[C@H](C)O[C@@H](C)C2)C3)cc1` [Example 73, (2S)-2-(tert-butoxy)-2-{2-[(2S,6S)-2,6-dimethylmorpholine-4-carbonyl]-4,7-dimethyl-6-(4-methylphenyl)-2,3-dihydro-1H-isoindol-5-yl}acetic acid], the pIC50 is 7.59.

Compound `Cc1c(-c2c(C)c3c(c(C)c2[C@H](OC(C)(C)C)C(=O)O)CN(C(=O)N2CCCC(C)(C)CC2)C3)cc(F)c2c1CCCO2` (atropisomer, axis not shown; (M)) [Example 206, (S)-2-(tert-butoxy)-2-((M)-2-(4,4-dimethylazepane-1-carbonyl)-6-(8-fluoro-5-methylchroman-6-yl)-4,7-dimethylisoindolin-5-yl)acetic acid] had a pIC50 of 8.30.

In turn, `Cc1ccccc1C(=O)N1Cc2c(C)c(-c3cc(F)c4c(c3C)CCCO4)c([C@H](OC(C)(C)C)C(=O)O)c(C)c2C1` (atropisomer, axis not shown; (M)) [Example 146, (S)-2-(tert-butoxy)-2-((M)-6-(8-fluoro-5-methylchroman-6-yl)-4,7-dimethyl-2-(2-methylbenzoyl)isoindolin-5-yl)acetic acid] showed a negative logarithm of the IC50 (pIC50) of 8.52.

As to `Cc1c(-c2c(C)c3c(c(C)c2[C@H](OC(C)(C)C)C(=O)O)CN(C(=O)c2cccc4c2OCO4)C3)cc(F)c2c1CCCO2` (atropisomer, axis not shown; (M)) [Example 138, (S)-2-((M)-2-(benzo[d][1,3]dioxole-4-carbonyl)-6-(8-fluoro-5-methylchroman-6-yl)-4,7-dimethylisoindolin-5-yl)-2-(tert-butoxy)acetic acid], the pIC50 is 8.70.

In turn, `Cc1ccc(-c2c(C)c3c(c(C)c2[C@H](OC(C)(C)C)C(=O)O)CN(C(=O)N2CCNCC2)C3)cc1` [Example 86, (S)-2-(tert-butoxy)-2-(4,7-dimethyl-2-(piperazine-1-carbonyl)-6-(p-tolyl)isoindolin-5-yl)acetic acid] showed a pIC50 of 5.93.

In the case of `Cc1cccc(C(=O)N2Cc3c(C)c(-c4cc(F)c5c(c4C)CCCO5)c([C@H](OC(C)(C)C)C(=O)O)c(C)c3C2)c1C` (atropisomer, axis not shown; (M)) [Example 193, (S)-2-(tert-butoxy)-2-((M)-2-(2,3-dimethylbenzoyl)-6-(8-fluoro-5-methylchroman-6-yl)-4,7-dimethylisoindolin-5-yl)acetic acid], the pIC50 is 8.30.

With `Cc1ccc(-c2c(C)c3c(c(C)c2[C@H](OC(C)(C)C)C(=O)O)CN(C(=O)NCC(F)(F)F)C3)cc1` [Example 94, (S)-2-(tert-butoxy)-2-(4,7-dimethyl-6-(p-tolyl)-2-((2,2,2-trifluoroethyl)carbamoyl)isoindolin-5-yl)acetic acid], the negative-log IC50 (pIC50) was 7.36.

Regarding `Cc1ccc(-c2c(C)c3c(c(C)c2[C@H](OC(C)(C)C)C(=O)O)CN(C(=O)N2CCCOCC2)C3)cc1` [Example 76, (2S)-2-(tert-butoxy)-2-[4,7-dimethyl-6-(4-methylphenyl)-2-(1,4-oxazepane-4-carbonyl)-2,3-dihydro-1H-isoindol-5-yl]acetic acid], the negative-log IC50 (pIC50) is 7.92.

On to `Cc1ccc(-c2c(C)c3c(c(C)c2[C@H](OC(C)(C)C)C(=O)O)CN(CCCc2cccc(F)c2)C3)cc1` [Example 38, (2S)-2-(tert-butoxy)-2-{2-[3-(3-fluorophenyl)propyl]-4,7-dimethyl-6-(4-methylphenyl)-2,3-dihydro-1H-isoindol-5-yl}acetic acid], for which the negative-log IC50 (pIC50) was 5.91.

For `COC1CCC(C(=O)N2Cc3c(C)c(-c4ccc(C)cc4)c([C@H](OC(C)(C)C)C(=O)O)c(C)c3C2)CC1` (stereo partly drawn) [Example 116, (S)-2-(tert-butoxy)-2-(2-(4-methoxycyclohexanecarbonyl)-4,7-dimethyl-6-(p-tolyl)isoindolin-5-yl)acetic acid], the pIC50 was 7.51.

`Cc1c(-c2c(C)c3c(c(C)c2[C@H](OC(C)(C)C)C(=O)O)CN(C(=O)c2ccc(F)cc2)C3)cc(F)c2c1CCCO2` (atropisomer, axis not shown; (M)) [Example 174, (S)-2-(tert-butoxy)-2-((M)-6-(8-fluoro-5-methylchroman-6-yl)-2-(4-fluorobenzoyl)-4,7-dimethylisoindolin-5-yl)acetic acid] gave a pIC50 of 8.40.

Take `Cc1ccc(-c2c(C)c3c(c(C)c2[C@H](OC(C)(C)C)C(=O)O)CN(C(=O)NCCOCc2ccccc2)C3)cc1` [Example 79, (2S)-2-(2-{[2-(benzyloxy)ethyl]carbamoyl}-4,7-dimethyl-6-(4-methylphenyl)-2,3-dihydro-1H-isoindol-5-yl)-2-(tert-butoxy)acetic acid]: the negative logarithm of the IC50 (pIC50) is 6.64.

Compound `Cc1c(-c2c(C)c3c(c(C)c2[C@H](OC(C)(C)C)C(=O)O)CN(C(=O)c2cc(F)cc(Cl)c2)C3)cc(F)c2c1CCCO2` (atropisomer, axis not shown; (M)) [Example 181, (S)-2-(tert-butoxy)-2-((M)-2-(3-chloro-5-fluorobenzoyl)-6-(8-fluoro-5-methylchroman-6-yl)-4,7-dimethylisoindolin-5-yl)acetic acid] showed a pIC50 of 8.30.

`Cc1ccc(-c2c(C)c3c(c(C)c2[C@H](OC(C)(C)C)C(=O)O)CN(C(=O)c2cccc(C(C)(C)C)c2)C3)cc1` [Example 230, (S)-2-(tert-butoxy)-2-(2-(3-(tert-butyl)benzoyl)-4,7-dimethyl-6-(p-tolyl)isoindolin-5-yl)acetic acid] gave a pIC50 of 6.95.

Turning to `Cc1ccc(-c2c(C)c3c(c(C)c2[C@H](OC(C)(C)C)C(=O)O)CN(Cc2cccc(C(F)(F)F)c2)C3)cc1` [Example 28, (S)-2-(tert-butoxy)-2-(4,7-dimethyl-6-(p-tolyl)-2-(3-(trifluoromethyl)benzyl)isoindolin-5-yl)acetic acid], the pIC50 was 7.03.

Take `Cc1ccc(-c2c(C)c3c(c(C)c2[C@H](OC(C)(C)C)C(=O)O)CN(C2CCC(C)(C)CC2)C3)cc1` [Example 14, (S)-2-(tert-Butoxy)-2-(2-(4,4-dimethylcyclohexyl)-4,7-dimethyl-6-(p-tolyl)isoindolin-5-yl)acetic acid]: the negative-log IC50 (pIC50) was 6.93.

For `Cc1ccc(-c2c(C)c3c(c(C)c2[C@H](OC(C)(C)C)C(=O)O)CN(C(=O)c2cccc4c2OCO4)C3)c(Cl)c1` [Example 309, (2S)-2-(2-(benzo[d][1,3]dioxole-4-carbonyl)-6-(2-chloro-4-methylphenyl)-4,7-dimethylisoindolin-5-yl)-2-(tert-butoxy)acetic acid], the negative-log IC50 (pIC50) is 8.40.

The compound `Cc1ccc(-c2c(C)c3c(c(C)c2[C@H](OC(C)(C)C)C(=O)O)CN(C(=O)c2cccc(F)c2C)C3)cc1` [Example 221, (S)-2-(tert-butoxy)-2-(2-(3-fluoro-2-methylbenzoyl)-4,7-dimethyl-6-(p-tolyl)isoindolin-5-yl)acetic acid] showed a negative logarithm of the IC50 (pIC50) of 8.40.

Compound `Cc1ccc(F)cc1C(=O)N1Cc2c(C)c(-c3cc(F)c4c(c3C)CCCO4)c([C@H](OC(C)(C)C)C(=O)O)c(C)c2C1` (atropisomer, axis not shown; (M)) [Example 177, (S)-2-(tert-butoxy)-2-((M)-2-(5-fluoro-2-methylbenzoyl)-6-(8-fluoro-5-methylchroman-6-yl)-4,7-dimethylisoindolin-5-yl)acetic acid] gave a pIC50 of 8.70.

The assay is the same for the next values; noted with them: MT-4 cells; luciferase/cell titer glo readout after 96 hours; 10 point dose response.
As for `COC1CCCC(C(=O)N2Cc3c(C)c(-c4ccc(C)cc4)c([C@H](OC(C)(C)C)C(=O)O)c(C)c3C2)C1` (stereo partly drawn) [Example 245, (2S)-2-(tert-butoxy)-2-(2-(3-methoxycyclohexanecarbonyl)-4,7-dimethyl-6-(p-tolyl)isoindolin-5-yl)acetic acid], the pIC50 was 7.59.

As for `Cc1c(-c2c(C)c3c(c(C)c2[C@H](OC(C)(C)C)C(=O)O)CN(C(=O)c2cccc(F)c2)C3)ccc2c1NCCO2` [Example 311, (2S)-2-(tert-butoxy)-2-(2-(3-fluorobenzoyl)-4,7-dimethyl-6-(5-methyl-3,4-dihydro-2H-benzo[b][1,4]oxazin-6-yl)isoindolin-5-yl)acetic acid], the pIC50 is 7.82.
